Experimental data published in patent US11987588B2, “Modulators of the beta-3 adrenergic receptor useful for the treatment or prevention of heart failure and disorders related thereto” (Arena Pharmaceuticals, Inc., priority 2017, dated 2024).

Biological target: Beta-3 Adrenergic Receptor (Homo sapiens (Human), UniProt P13945)
Experiment: Homogeneous Time-Resolved Fluorescence (HTRF) cAMP antagonist assay, IC50 determination
Assay type: cell-based
Settings: CHO-K1 cells stably expressing recombinant receptor, isoproterenol at EC90
Experimental: HTRF cAMP assays were performed according to manufacturer's instructions (Cisbio, cAMP Dynamic 2 Assay Kit; #62AM4PEJ). CHO-K1 cells stably expressing recombinant receptor were harvested and suspended in warm PBS to make a 300,000 cells/mL stock. This cell suspension was dispensed into 384 well assay plates (PerkinElmer ProxiPlate #6008280) at 5 μL per well (1500 cells/well) along with a cAMP standard curve.
Compounds were dissolved and serially diluted (5-fold) in DMSO to generate a 10-point dose response stock. The stock was then diluted 100-fold in assay buffer (PBS containing 1 mM IBMX) before a volume of 2.5 μL was added to the cells (the final, top concentration of compound in the dose-response is typically 10 or 100 μM). After a brief incubation, 2.5 μL of isoproterenol stock, prepared at a concentration 4 times its EC90 at the receptor of interest, was added to the wells. The EC90 for isoproterenol, a beta-adrenergic agonist, was determined in separate experiments using standard methods to measure agonist potencies.
Following a 1-hour incubation at room temperature, 5 μL of cAMP-D2 Reagent diluted in Lysis Buffer was added to each well followed by 5 μL of Cryptate Reagent. Plates were further incubated at room temperature for 1 hour prior to reading. Time resolved fluorescence measurements were collected on a suitable, HTRF-capable plate reader.
Counts from the plate reader were fit to the cAMP standard curve on the assay plate in order to determine cAMP concentrations in each well, and these values were used to construct dose-response curves to obtain IC50 values.

Chain of Beta-3 Adrenergic Receptor (P13945 whole entry, species assumed): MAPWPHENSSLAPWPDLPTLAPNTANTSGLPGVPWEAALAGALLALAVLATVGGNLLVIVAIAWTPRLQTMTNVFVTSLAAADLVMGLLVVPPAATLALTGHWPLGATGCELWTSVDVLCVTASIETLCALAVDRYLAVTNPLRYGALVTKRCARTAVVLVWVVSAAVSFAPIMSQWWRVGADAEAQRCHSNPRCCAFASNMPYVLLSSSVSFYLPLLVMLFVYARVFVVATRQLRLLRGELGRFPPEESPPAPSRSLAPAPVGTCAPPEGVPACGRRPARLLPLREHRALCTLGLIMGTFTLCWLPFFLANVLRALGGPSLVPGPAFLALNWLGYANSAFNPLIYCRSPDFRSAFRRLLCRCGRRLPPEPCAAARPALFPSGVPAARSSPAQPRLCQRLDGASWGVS

Row | SMILES | IC50
1 | CNS(=O)(=O)c1cccc(OC[C@@H](O)CNC2COC3(CCN(S(=O)(=O)c4ccc(C(C)=O)cc4)CC3)C2)c1 (stereo partly drawn) [Compound 25, 3-((2S)-3-(8-(4-acetylphenylsulfonyl)-1-oxa-8-azaspiro[4.5]decan-3-ylamino)-2-hydroxypropoxy)-N-methylbenzenesulfonamide] | 26 nM
2 | CNS(=O)(=O)c1cccc(OC[C@@H](O)CNC2COC3(CCN(S(=O)(=O)c4cccc(C#N)c4)CC3)C2)c1 (stereo partly drawn) [Compound 32, 3-((2S)-3-(8-(3-cyanophenylsulfonyl)-1-oxa-8-azaspiro[4.5]decan-3-ylamino)-2-hydroxypropoxy)-N-methylbenzenesulfonamide] | 16.6 nM
3 | CNS(=O)(=O)c1cccc(OC[C@@H](O)CNC2COC3(CCN(S(=O)(=O)c4ccccc4C(F)(F)F)CC3)C2)c1 (stereo partly drawn) [Compound 33, 3-((2S)-2-hydroxy-3-(8-(2-(trifluoromethyl)phenylsulfonyl)-1-oxa-8-azaspiro[4.5]decan-3-ylamino)propoxy)-N-methylbenzenesulfonamide] | 17.6 nM
4 | CNS(=O)(=O)c1cccc(OC[C@@H](O)CNC2COC3(CCN(S(=O)(=O)c4ccc(C(C)(C)C)cc4)CC3)C2)c1 (stereo partly drawn) [Compound 36, 3-((2S)-3-(8-(4-tert-butylphenylsulfonyl)-1-oxa-8-azaspiro[4.5]decan-3-ylamino)-2-hydroxypropoxy)-N-methylbenzenesulfonamide] | 13.2 nM
5 | CNS(=O)(=O)c1cccc(OC[C@@H](O)CNC2COC3(CCN(S(=O)(=O)c4ccc(S(C)(=O)=O)cc4)CC3)C2)c1 (stereo partly drawn) [Compound 37, 3-((2S)-2-hydroxy-3-(8-(4-(methylsulfonyl)phenylsulfonyl)-1-oxa-8-azaspiro[4.5]decan-3-ylamino)propoxy)-N-methylbenzenesulfonamide] | 49.3 nM
6 | CNS(=O)(=O)c1cccc(OC[C@@H](O)CNC2COC3(CCN(S(=O)(=O)c4cccc(C(F)(F)F)c4)CC3)C2)c1 (stereo partly drawn) [Compound 38, 3-((2S)-2-hydroxy-3-(8-(3-(trifluoromethyl)phenylsulfonyl)-1-oxa-8-azaspiro[4.5]decan-3-ylamino)propoxy)-N-methylbenzenesulfonamide] | 18.7 nM
7 | CNS(=O)(=O)c1cccc(OC[C@@H](O)CNC2COC3(CCN(S(=O)(=O)c4ccccc4C#N)CC3)C2)c1 (stereo partly drawn) [Compound 39, 3-((2S)-3-(8-(2-cyanophenylsulfonyl)-1-oxa-8-azaspiro[4.5]decan-3-ylamino)-2-hydroxypropoxy)-N-methylbenzenesulfonamide] | 30.7 nM
8 | CNS(=O)(=O)c1cccc(OC[C@@H](O)CNC2COC3(CCN(S(=O)(=O)c4ccc(C(=O)O)cc4)CC3)C2)c1 (stereo partly drawn) [Compound 40, 4-(3-((S)-2-hydroxy-3-(3-(N-methylsulfamoyl)phenoxy)propylamino)-1-oxa-8-azaspiro[4.5]decan-8-ylsulfonyl)benzoic acid] | 577 nM
9 | CNS(=O)(=O)c1cccc(OC[C@@H](O)CNC2COC3(CCN(S(=O)(=O)c4ccc(NC(C)=O)cc4)CC3)C2)c1 (stereo partly drawn) [Compound 42, N-(4-(3-((S)-2-hydroxy-3-(3-(N-methylsulfamoyl)phenoxy)propylamino)-1-oxa-8-azaspiro[4.5]decan-8-ylsulfonyl)phenyl)acetamide] | 31.9 nM
10 | CNS(=O)(=O)c1cccc(OC[C@@H](O)CNC2COC3(CCN(S(=O)(=O)c4ccccc4S(C)(=O)=O)CC3)C2)c1 (stereo partly drawn) [Compound 43, 3-((2S)-2-hydroxy-3-(8-(2-(methylsulfonyl)phenylsulfonyl)-1-oxa-8-azaspiro[4.5]decan-3-ylamino)propoxy)-N-methylbenzenesulfonamide] | 74 nM
11 | CNS(=O)(=O)c1cccc(OC[C@@H](O)CNC2COC3(CCN(S(=O)(=O)c4ccc(C(F)(F)F)cc4)CC3)C2)c1 (stereo partly drawn) [Compound 45, 3-((2S)-2-hydroxy-3-(8-(4-(trifluoromethyl)phenylsulfonyl)-1-oxa-8-azaspiro[4.5]decan-3-ylamino)propoxy)-N-methylbenzenesulfonamide] | 19.4 nM

The next lines start with the values.

Row | IC50 | SMILES
12 | 34.1 nM | CNS(=O)(=O)c1cccc(OC[C@@H](O)CNC2COC3(CCN(S(=O)(=O)c4ccc(F)cc4)CC3)C2)c1 (stereo partly drawn) [Compound 26, 3-((2S)-3-(8-(4-fluorophenylsulfonyl)-1-oxa-8-azaspiro[4.5]decan-3-ylamino)-2-hydroxypropoxy)-N-methylbenzenesulfonamide]
13 | 13.8 nM | CNS(=O)(=O)c1cccc(OC[C@@H](O)CNC2COC3(CCN(S(=O)(=O)c4cccc(OC)c4)CC3)C2)c1 (stereo partly drawn) [Compound 27, 3-((2S)-2-hydroxy-3-(8-(3-methoxyphenylsulfonyl)-1-oxa-8-azaspiro[4.5]decan-3-ylamino)propoxy)-N-methylbenzenesulfonamide]
14 | 16.2 nM | CNS(=O)(=O)c1cccc(OC[C@@H](O)CNC2COC3(CCN(S(=O)(=O)c4cccc(F)c4)CC3)C2)c1 (stereo partly drawn) [Compound 28, 3-((2S)-3-(8-(3-fluorophenylsulfonyl)-1-oxa-8-azaspiro[4.5]decan-3-ylamino)-2-hydroxypropoxy)-N-methylbenzenesulfonamide]
15 | 4.53 nM | CNS(=O)(=O)c1cccc(OC[C@@H](O)CN[C@@H]2COC3(CCN(S(=O)(=O)c4ccc5ccccc5c4)CC3)C2)c1 [Compound 29, 3—((S)-2-hydroxy-3-((S)-8-(naphthalen-2-ylsulfonyl)-1-oxa-8-azaspiro[4.5]decan-3-ylamino)propoxy)-N-methylbenzenesulfonamide]
16 | 4.41 nM | CNS(=O)(=O)c1cccc(OC[C@@H](O)CN[C@H]2COC3(CCN(S(=O)(=O)c4ccc5ccccc5c4)CC3)C2)c1 [Compound 30, 3—((S)-2-hydroxy-3-((R)-8-(naphthalen-2-ylsulfonyl)-1-oxa-8-azaspiro[4.5]decan-3-ylamino)propoxy)-N-methylbenzenesulfonamide]
17 | 21 nM | CNS(=O)(=O)c1cccc(OC[C@@H](O)CNC2COC3(CCN(S(=O)(=O)c4cccc(-c5ccccc5)c4)CC3)C2)c1 (stereo partly drawn) [Compound 31, 3-((2S)-3-(8-(biphenyl-3-ylsulfonyl)-1-oxa-8-azaspiro[4.5]decan-3-ylamino)-2-hydroxypropoxy)-N-methylbenzenesulfonamide]
18 | 24.2 nM | CNS(=O)(=O)c1cccc(OC[C@@H](O)CNC2COC3(CCN(S(=O)(=O)c4ccccc4F)CC3)C2)c1 (stereo partly drawn) [Compound 34, 3-((2S)-3-(8-(2-fluorophenylsulfonyl)-1-oxa-8-azaspiro[4.5]decan-3-ylamino)-2-hydroxypropoxy)-N-methylbenzenesulfonamide]
19 | 18.9 nM | CNS(=O)(=O)c1cccc(OC[C@@H](O)CNC2COC3(CCN(S(=O)(=O)c4ccccc4Cl)CC3)C2)c1 (stereo partly drawn) [Compound 35, 3-((2S)-3-(8-(2-chlorophenylsulfonyl)-1-oxa-8-azaspiro[4.5]decan-3-ylamino)-2-hydroxypropoxy)-N-methylbenzenesulfonamide]
20 | 6.82 nM | CNS(=O)(=O)c1cccc(OC[C@@H](O)CNC2COC3(CCN(S(=O)(=O)c4ccc5c(c4)CCCO5)CC3)C2)c1 (stereo partly drawn) [Compound 41, 3-((2S)-3-(8-(chroman-6-ylsulfonyl)-1-oxa-8-azaspiro[4.5]decan-3-ylamino)-2-hydroxypropoxy)-N-methylbenzenesulfonamide]
21 | 34.1 nM | CNS(=O)(=O)c1cccc(OC[C@@H](O)CNC2COC3(CCN(S(=O)(=O)c4ccc(C#N)cc4)CC3)C2)c1 (stereo partly drawn) [Compound 44, 3-((2S)-3-(8-(4-cyanophenylsulfonyl)-1-oxa-8-azaspiro[4.5]decan-3-ylamino)-2-hydroxypropoxy)-N-methylbenzenesulfonamide]
22 | 54.1 nM | CC(O)CNS(=O)(=O)c1cccc(OC[C@@H](O)CNC2COC3(CCN(S(=O)(=O)c4ccc5ccccc5c4)CC3)C2)c1 (stereo partly drawn) [Compound 46, 3-((2S)-2-hydroxy-3-(8-(naphthalen-2-ylsulfonyl)-1-oxa-8-azaspiro[4.5]decan-3-ylamino)propoxy)-N-(2-hydroxypropyl)benzenesulfonamide]
23 | 155 nM | CCOCCNS(=O)(=O)c1cccc(OC[C@@H](O)CNC2COC3(CCN(S(=O)(=O)c4ccc5ccccc5c4)CC3)C2)c1 (stereo partly drawn) [Compound 47, N-(2-ethoxyethyl)-3-((2S)-2-hydroxy-3-(8-(naphthalen-2-ylsulfonyl)-1-oxa-8-azaspiro[4.5]decan-3-ylamino)propoxy)benzenesulfonamide]
24 | 133 nM | C[C@@H](CO)NS(=O)(=O)c1cccc(OC[C@@H](O)CNC2COC3(CCN(S(=O)(=O)c4ccc5ccccc5c4)CC3)C2)c1 (stereo partly drawn) [Compound 48, 3-((2S)-2-hydroxy-3-(8-(naphthalen-2-ylsulfonyl)-1-oxa-8-azaspiro[4.5]decan-3-ylamino)propoxy)-N—((S)-1-hydroxypropan-2-yl)benzenesulfonamide]
25 | 107 nM | CC(C)(CO)NS(=O)(=O)c1cccc(OC[C@@H](O)CNC2COC3(CCN(S(=O)(=O)c4ccc5ccccc5c4)CC3)C2)c1 (stereo partly drawn) [Compound 49, N-(1-hydroxy-2-methylpropan-2-yl)-3-((2S)-2-hydroxy-3-(8-(naphthalen-2-ylsulfonyl)-1-oxa-8-azaspiro[4.5]decan-3-ylamino)propoxy)benzenesulfonamide]
26 | 87.2 nM | O=S(=O)(NC1CCOCC1)c1cccc(OC[C@@H](O)CNC2COC3(CCN(S(=O)(=O)c4ccc5ccccc5c4)CC3)C2)c1 (stereo partly drawn) [Compound 50, 3-((2S)-2-hydroxy-3-(8-(naphthalen-2-ylsulfonyl)-1-oxa-8-azaspiro[4.5]decan-3-ylamino)propoxy)-N-(tetrahydro-2H-pyran-4-yl)benzenesulfonamide]
